Laboratory results: patent US20240025887A1, “THIENYL AND CYCLOALKYL AMINOPYRIMIDINE COMPOUNDS AS INHIBITORS OF NUAK KINASES, COMPOSITIONS AND USES THEREOF” (Ontario Institute for Cancer Research (OICR), priority 2021, published 2024)

What was measured:
Assay type in all cases: biochemical
[1] = target: T1, Aurora A (Homo sapiens, UniProt O14965); test: Aurora A counter screen; conditions: read-out: AUR-A (IC50)
T1 sequence (O14965 1-403): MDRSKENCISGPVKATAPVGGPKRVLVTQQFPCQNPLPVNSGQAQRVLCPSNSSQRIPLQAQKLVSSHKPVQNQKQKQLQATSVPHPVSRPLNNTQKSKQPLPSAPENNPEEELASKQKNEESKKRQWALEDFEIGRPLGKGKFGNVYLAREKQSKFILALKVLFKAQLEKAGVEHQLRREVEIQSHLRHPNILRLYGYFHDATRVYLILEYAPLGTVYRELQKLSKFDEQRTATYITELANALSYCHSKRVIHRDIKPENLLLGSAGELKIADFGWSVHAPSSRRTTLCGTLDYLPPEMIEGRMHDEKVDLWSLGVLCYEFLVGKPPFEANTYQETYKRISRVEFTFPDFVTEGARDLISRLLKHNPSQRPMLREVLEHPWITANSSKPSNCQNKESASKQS
Experimental: (§1) To identify small molecule NUAK inhibitors, a biochemical NUAK2 enzymatic assay was outsourced to Eurofins. This assay was done radiometrically using full-length, recombinant enzyme. NUAK2 (h) was incubated with 8 mM MOPS pH 7.0, 0.2 mM EDTA, 300 μM […], 10 mM magnesium acetate and […] (specific activity and concentration as required). The reaction was initiated by the addition of the Mg/ATP mix. After incubation for 40 minutes at room temperature, the reaction was stopped by the addition of phosphoric acid to a concentration of 0.5%. 10 μL of the reaction was then spotted onto a P30 filter mat and washed four times for 4 minutes in 0.425% phosphoric acid and once in methanol prior to drying and scintillation counting. Compounds were routinely counter screened against Aurora A and NUAK1. The results are shown in Table 1 where IC50s are reported the following ranges: A: 0.1-10 nM; B: 11-100 nM; C: 101-1000 nM; D: >1000 nM for the compounds of Formula I)

[2] = target: T2, NUAK1 (Homo sapiens, UniProt O60285); test: NUAK1 counter screen
T2 sequence (O60285 1-661): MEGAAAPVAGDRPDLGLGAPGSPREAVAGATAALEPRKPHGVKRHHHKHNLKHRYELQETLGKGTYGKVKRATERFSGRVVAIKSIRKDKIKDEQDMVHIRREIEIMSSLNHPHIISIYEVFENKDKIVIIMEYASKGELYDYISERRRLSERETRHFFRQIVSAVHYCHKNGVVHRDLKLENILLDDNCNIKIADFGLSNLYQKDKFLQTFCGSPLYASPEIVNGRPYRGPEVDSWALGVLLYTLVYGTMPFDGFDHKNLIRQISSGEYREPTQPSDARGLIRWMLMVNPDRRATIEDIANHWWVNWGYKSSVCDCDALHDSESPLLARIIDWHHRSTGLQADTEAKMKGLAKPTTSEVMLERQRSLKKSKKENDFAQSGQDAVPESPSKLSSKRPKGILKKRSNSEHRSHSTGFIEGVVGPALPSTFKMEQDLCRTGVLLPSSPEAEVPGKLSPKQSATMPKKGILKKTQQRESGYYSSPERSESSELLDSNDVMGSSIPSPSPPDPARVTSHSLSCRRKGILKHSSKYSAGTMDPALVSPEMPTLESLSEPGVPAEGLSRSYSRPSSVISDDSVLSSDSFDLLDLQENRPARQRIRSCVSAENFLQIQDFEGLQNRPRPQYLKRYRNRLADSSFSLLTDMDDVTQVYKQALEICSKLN
Experimental: as §1

[3] = target: T3, NUAK2 (h) (Homo sapiens, UniProt Q9H093); test: NUAK2 enzymatic assay (radiometric, Eurofins); conditions: radiometric, full-length recombinant enzyme
T3 construct: This assay was done radiometrically using full-length, recombinant enzyme; purchased Eurofins
T3 sequence (Q9H093 1-628): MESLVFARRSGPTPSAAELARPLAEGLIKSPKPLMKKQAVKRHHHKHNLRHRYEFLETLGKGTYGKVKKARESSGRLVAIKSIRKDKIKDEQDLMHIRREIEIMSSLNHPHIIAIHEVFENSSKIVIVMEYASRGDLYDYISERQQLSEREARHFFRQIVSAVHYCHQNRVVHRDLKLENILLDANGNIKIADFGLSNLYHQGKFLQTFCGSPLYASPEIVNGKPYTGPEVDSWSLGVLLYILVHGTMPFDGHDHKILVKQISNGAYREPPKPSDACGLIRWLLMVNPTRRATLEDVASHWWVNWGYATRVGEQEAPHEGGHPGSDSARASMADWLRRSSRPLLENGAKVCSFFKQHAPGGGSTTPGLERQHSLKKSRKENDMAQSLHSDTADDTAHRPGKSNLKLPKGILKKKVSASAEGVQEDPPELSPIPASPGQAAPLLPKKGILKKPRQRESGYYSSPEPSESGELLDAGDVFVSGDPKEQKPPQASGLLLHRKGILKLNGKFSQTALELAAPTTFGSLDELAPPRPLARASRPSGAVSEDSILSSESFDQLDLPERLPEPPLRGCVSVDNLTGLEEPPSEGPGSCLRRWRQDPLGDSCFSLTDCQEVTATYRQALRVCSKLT
Experimental: as §1

Row | Compound | IC50 [1] | IC50 [2] | IC50 [3]
1 | CN1CCC(N(C)c2ccc(Nc3ncc(Cl)c(Nc4ccsc4C(N)=O)n3)c(OC(F)F)c2)CC1 [Compound I-66, 3-((5-chloro-2-((2-(difluoromethoxy)-4-(methyl(1-methylpiperidin-4-yl)amino)phenyl)amino)pyrimidin-4-yl)amino)thiophene-2-carboxamide] | 101 to 1000 nM | 11 to 100 nM | 11 to 100 nM
2 | CN1CCN(c2ccc(Nc3ncc(Cl)c(N[C@@H]4CCCC[C@@H]4C(N)=O)n3)c(C(F)(F)F)c2)CC1 [Compound I-85, (1S,2R)-2-((5-chloro-2-((4-(4-methylpiperazin-1-yl)-2-(trifluoromethyl)phenyl)amino)pyrimidin-4-yl)amino)cyclohexane-1-carboxamide] | > 1000 nM | 101 to 1000 nM | 11 to 100 nM
3 | C[C@H]1CN(c2ccc(Nc3ncc(Cl)c(Nc4sccc4C(N)=O)n3)c(OC(F)F)c2)CCN1C [Compound I-23, (S)-2-((5-chloro-2-((2-(difluoromethoxy)-4-(3,4-dimethylpiperazin-1-yl)phenyl)amino)pyrimidin-4-yl)amino)thiophene-3-carboxamide] | 101 to 1000 nM | 11 to 100 nM | 11 to 100 nM
4 | CN1CCN(c2ccc(Nc3ncc(Cl)c(N[C@@H]4CCC[C@@H]4C(N)=O)n3)c(OC(F)F)c2)CC1 [Compound I-86, (1S,2R)-2-((5-chloro-2-((2-(difluoromethoxy)-4-(4-methylpiperazin-1-yl)phenyl)amino)pyrimidin-4-yl)amino)cyclopentane-1-carboxamide] | > 1000 nM | 11 to 100 nM | 11 to 100 nM
5 | CCN1CCN(c2ccc(Nc3ncc(Cl)c(Nc4cscc4C(N)=O)n3)c(OC(F)F)c2)CC1 [Compound I-14, 4-((5-chloro-2-((2-(difluoromethoxy)-4-(4-ethylpiperazin-1-yl)phenyl)amino)pyrimidin-4-yl)amino)thiophene-3-carboxamide] | 101 to 1000 nM | 0.1 to 10 nM | 0.1 to 10 nM
6 | NC(=O)c1sccc1Nc1nc(Nc2ccc(N3CCC(N4CCN5CCC[C@@H]5C4)CC3)cc2OC(F)F)ncc1Cl [Compound I-71, (R)-3-((5-chloro-2-((2-(difluoromethoxy)-4-(4-(hexahydropyrrolo[1,2-a]pyrazin-2(1H)-yl)piperidin-1-yl)phenyl)amino)pyrimidin-4-yl)amino)thiophene-2-carboxamide] | 11 to 100 nM | 11 to 100 nM | 11 to 100 nM
7 | CN1CCN(C2CCN(c3ccc(Nc4ncc(C#N)c(Nc5ccsc5C(N)=O)n4)c(OC(F)F)c3)CC2)CC1 [Compound I-80, 3-((5-cyano-2-((2-(difluoromethoxy)-4-(4-(4-methylpiperazin-1-yl)piperidin-1-yl)phenyl)amino)pyrimidin-4-yl)amino)thiophene-2-carboxamide] | 101 to 1000 nM | 11 to 100 nM | 11 to 100 nM
8 | NC(=O)c1ccsc1Nc1nc(Nc2ccc(N3CCCC3)cc2OC(F)F)ncc1Cl [Compound I-31, 2-((5-chloro-2-((2-(difluoromethoxy)-4-(pyrrolidin-1-yl)phenyl)amino)pyrimidin-4-yl)amino)thiophene-3-carboxamide] | > 1000 nM | 101 to 1000 nM | > 1000 nM
9 | CN1CCN(c2ccc(Nc3ncc(Cl)c(Nc4sccc4C(N)=O)n3)c(OC(F)(F)F)c2)CC1 [Compound I-19, 2-((5-chloro-2-((4-(4-methylpiperazin-1-yl)-2-(trifluoromethoxy)phenyl)amino)pyrimidin-4-yl)amino)thiophene-3-carboxamide] | > 1000 nM | 101 to 1000 nM | 11 to 100 nM

The next lines start with the values.

Row | IC50 [1] | IC50 [2] | IC50 [3] | Compound
10 | 11 to 100 nM | 11 to 100 nM | 11 to 100 nM | NC(=O)c1sccc1Nc1nc(Nc2ccc(N3CCC(O)CC3)cc2OC(F)F)ncc1Cl [Compound I-60, 3-((5-chloro-2-((2-(difluoromethoxy)-4-(4-hydroxypiperidin-1-yl)phenyl)amino)pyrimidin-4-yl)amino)thiophene-2-carboxamide]
11 | 11 to 100 nM | 11 to 100 nM | 11 to 100 nM | CC(C)(C)N1CCN(c2ccc(Nc3ncc(Cl)c(Nc4sccc4C(N)=O)n3)c(OC(F)F)c2)CC1 [Compound I-22, 2-((2-((4-(4-(tert-butyl)piperazin-1-yl)-2-(difluoromethoxy)phenyl)amino)-5-chloropyrimidin-4-yl)amino)thiophene-3-carboxamide]
12 | 11 to 100 nM | 0.1 to 10 nM | 0.1 to 10 nM | C[C@H]1CN(c2ccc(Nc3ncc(Cl)c(Nc4ccsc4C(N)=O)n3)c(OC(F)F)c2)CCN1C [Compound I-21, (S)-3-((5-chloro-2-((2-(difluoromethoxy)-4-(3,4-dimethylpiperazin-1-yl)phenyl)amino)pyrimidin-4-yl)amino)thiophene-2-carboxamide]
13 | > 1000 nM | 11 to 100 nM | 11 to 100 nM | CN1CCN(c2ccc(Nc3ncc(Cl)c(Nc4ccsc4C(N)=O)n3)c(C(F)(F)F)c2)CC1 [Compound I-46, 3-((5-chloro-2-((4-(4-methylpiperazin-1-yl)-2-(trifluoromethyl)phenyl)amino)pyrimidin-4-yl)amino)thiophene-2-carboxamide]
14 | 101 to 1000 nM | 11 to 100 nM | 11 to 100 nM | CC(C)N1CCN(C2CCN(c3ccc(Nc4ncc(Cl)c(Nc5ccsc5C(N)=O)n4)c(OC(F)F)c3)CC2)CC1 [Compound I-62, 3-((5-chloro-2-((2-(difluoromethoxy)-4-(4-(4-isopropylpiperazin-1-yl)piperidin-1-yl)phenyl)amino)pyrimidin-4-yl)amino)thiophene-2-carboxamide]
15 | 101 to 1000 nM | 0.1 to 10 nM | 0.1 to 10 nM | CC(C)(C)N1CCN(c2ccc(Nc3ncc(Cl)c(Nc4ccsc4C(N)=O)n3)c(OC(F)F)c2)CC1 [Compound I-20, 3-((2-((4-(4-(tert-butyl)piperazin-1-yl)-2-(difluoromethoxy)phenyl)amino)-5-chloropyrimidin-4-yl)amino)thiophene-2-carboxamide]
16 | 101 to 1000 nM | 11 to 100 nM | 11 to 100 nM | Cc1cnc(Nc2ccc(N3CCN(C(C)C)CC3)cc2OC(F)F)nc1Nc1ccsc1C(N)=O [Compound I-17, 3-((2-((2-(difluoromethoxy)-4-(4-isopropylpiperazin-1-yl)phenyl)amino)-5-methylpyrimidin-4-yl)amino)thiophene-2-carboxamide]
17 | > 1000 nM | 11 to 100 nM | 0.1 to 10 nM | CN1CCN(c2ccc(Nc3ncc(Cl)c(Nc4ccsc4C(N)=O)n3)c(OC(F)(F)F)c2)CC1 [Compound I-10, 3-((5-chloro-2-((4-(4-methylpiperazin-1-yl)-2-(trifluoromethoxy)phenyl)amino)pyrimidin-4-yl)amino)thiophene-2-carboxamide]
